This note sets out measurements from patent publication US5614534A, “Derivatives of β, β-dimethyl-4-piperidineethanamine as inhibitors of the cholesterol biosynthesis” (Fournier Industrie et Sante, priority 1993, dated 1997).

This assay has as its target T1, epoxysqualene cyclase (Rattus norvegicus, UniProt P48450).
T1 construct: Rat hepatic microsomes were used as the source of the enzyme; from tissue; host or cells: liver microsomes of male Wistar rats
T1 sequence (P48450 1-733): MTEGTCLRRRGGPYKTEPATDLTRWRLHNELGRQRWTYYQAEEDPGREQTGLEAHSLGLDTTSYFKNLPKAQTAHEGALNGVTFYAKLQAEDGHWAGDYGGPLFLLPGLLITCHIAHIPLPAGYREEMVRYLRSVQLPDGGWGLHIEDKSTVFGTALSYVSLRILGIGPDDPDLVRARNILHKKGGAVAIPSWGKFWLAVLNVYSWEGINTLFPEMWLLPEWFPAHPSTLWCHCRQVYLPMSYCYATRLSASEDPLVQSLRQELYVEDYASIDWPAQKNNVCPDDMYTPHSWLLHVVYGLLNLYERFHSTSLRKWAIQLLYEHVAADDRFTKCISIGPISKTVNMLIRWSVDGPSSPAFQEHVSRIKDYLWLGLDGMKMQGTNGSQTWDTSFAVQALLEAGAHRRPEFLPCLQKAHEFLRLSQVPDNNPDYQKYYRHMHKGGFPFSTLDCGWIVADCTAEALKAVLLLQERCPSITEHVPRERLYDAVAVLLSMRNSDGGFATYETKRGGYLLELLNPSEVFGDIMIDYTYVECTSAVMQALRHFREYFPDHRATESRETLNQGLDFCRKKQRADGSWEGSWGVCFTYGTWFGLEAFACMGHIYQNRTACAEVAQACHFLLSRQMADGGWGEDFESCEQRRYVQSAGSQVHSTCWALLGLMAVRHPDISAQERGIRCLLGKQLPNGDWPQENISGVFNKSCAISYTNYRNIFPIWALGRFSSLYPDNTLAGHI
In words: inhibition of epoxysqualene cyclase in rat hepatic microsomes (lanosterol formed from (R,S)-2,3-oxydosqualene). It counts as biochemical, male Wistar rats. To be noted: 25.10^-6 moles per liter of tested product; 150 μM (R,S)-2,3-oxydosqualene, 60 minutes at 37° C., pH=7.4; read-out: Inhibition percentage (of the quantity of lanosterol formed). As for the experimental part: The activity of the Compounds of the invention was evaluated by the observation of an inhibiting effect on epoxysqualene cyclase in the hepatic microsomes of male Wistar rats.
The method consisted of measuring the lanosterol formed from R,S-2,3-oxydosqualene by the microsomal enzyme. The enzyme was prepared using the method described by G. C. Ness (G. C. Ness et. al., Biochem. J., (1986), 233, 167-172).
Method for Measuring the Activity of Epoxysqualene Cyclase
Rat hepatic microsomes were used as the source of the enzyme. The method consisted in measuring the lanosterol formed from (R,S)-2,3-oxydosqualene.The (R,S)-2,3-oxydosqualene, the products to be tested and TWEEN® 80 in organic solution (2-propanone or sulphinyl bis-methane) (25 μl) were placed in test tubes and 400 μl of potassium buffer (0.1M, pH=7.4) was added. The reaction was initiated by adding 100 μl of the microsomes. In a final reaction volume of 525 μl, the mixture contained 150 μM of (R,S)-2,3-oxydosqualene, 0.1% of TWEEN® 80 (to dissolve the (R,S)-2,3-oxydosqualene) and 250 μg of microsomal proteins. The reaction time was 60 minutes at 37° C. The reaction was stopped by addition of 300 μl of methanolic potassium hydroxide (7%) and 20 μg of stigmasterol as an internal standard. After saponification at 80° C. for 30 minutes and stirring using a rotary stirrer, the sterols were extracted with 2 ml of hexane. The lanosterol formed was separated from the (R,S)-2,3-oxydosqualene, the membranal cholesterol and the stigmasterol by gas phase chromatography after transformation to the trimethylsilyl ethers. Derivatisation of the sterols was carried out at 60° C. for 30 minutes after addition of 25 μl of pyridine and 75 μl of the trimethylsilyl ester of 2,2,2-trifluoro-N-trimethylsily-ethanimidic acid containing 1% of trimethylchlorosilane ethers.
After evaporation, the trimethylsilyl ethers were taken up into solution in 100 μl of hexane. An aliquot of this solution (2 μl) was gas chromatographed on a OV1 capillary column (0.32 mm, 25 m) under the following conditions: injection temperature=270° C., furnace temperature=260° C., detector temperature=300° C.; the vector gas was nitrogen at a pressure of 7.10^4 Pa.
The potency of the molecules tested was expressed as the percentage inhibition of the quantity of lanosterol formed for a concentration of 25.10^-6 moles per liter of product tested.

For orientation: inhibition means how much of the control response was suppressed. As to `CCCCCCCCCCCCN1CCC(C(C)(C)CN(C)C)CC1` [Example 2, 1-dodecyl-N,N,β,β-tetramethyl-4-piperidineethanamine], the inhibition turned out to be 97%.
With `CCCCCCCCCCCCN1CCC(C(C)(C)CNCC)CC1` [Example 9, 1-dodecyl-N-ethyl,β,β-dimethyl-4-piperidineethanamine] the figure was 96%; with `CCCCCCCCCCCCN1CCC(C(C)(C)CN)CC1` [Example 1, 1-dodecyl-β,β-dimethyl-4-piperidineethanamine], 75%.
The value for `C=CCN1CCC(C(C)(C)CN(C)C)CC1` [Example 13, 1-(2-propenyl)-N,N,β,β-tetramethyl-4-piperidineethanamine] was 64%; that for `CN(C)CC(C)(C)C1CCN(CC=Cc2ccccc2)CC1` [Example 31, 1-(3-phenylpropenyl)-N,N,β,β-tetramethyl-4-piperidineethanamine] was 99%.
The value for `CCCCCCCCCCCCN1CCC(C(C)(C)CNC(C)=O)CC1` [Example 11, N-[2-methyl-2-[(1-dodecyl)-4-piperidinyl]propyl]-N-acetamide] was 58%; that for `CC(Cc1ccc(C(C)C)cc1)CN1CCC(C(C)(C)CN(C)C)CC1` (stereo not drawn) [Example 18, 1-[3-[4-(methylethyl)phenyl]-2-methyl-propyl]-N,N,β,β-tetramethyl-4-piperidineethanamine] was 100%.
Regarding `CC(C)Cc1ccc(C(C)CN2CCC(C(C)(C)CN(C)C)CC2)cc1` (stereo not drawn) [Example 32, 1-[2-[4-(2-methylpropyl)phenyl]-2-methylethyl]-N,N,β,β-tetramethyl-4-piperidineethanamine], the inhibition was found to be 95%.
For the compound `CCCCCCCCCCC(=O)N1CCC(C(C)(C)CN(C)C)CC1` [Example 19, 1-undecanoyl-N,N,β,β-tetramethyl-4-piperidineethanamine], the inhibition stood at 100%.
The value for `CCCCCCCCCCCCN1CCC(C(C)(C)CN(C)C(C)=O)CC1` [Example 10, N-methyl-N-[2-methyl-2-[(1-dodecyl)-4-piperidinyl]propyl]acetamide] was 66%; that for `CCCCCCCCCCCCN1CCC(C(C)(C)CN(CC)CC)CC1` [Example 4, 1-dodecyl-N,N-diethyl,β,β-dimethyl-4-piperidineethanamine] was 63%; that for `CN(C)CC(C)(C)C1CCN(CCCCCC(C)(C)C)CC1` [Example 17, 1-(6,6-dimethyl-heptyl)-N,N,β,β-tetramethyl-4-piperidineethanamine] was 100%.
Consider `CN(C)CC(C)(C)C1CCN(CC(C)(C)Oc2ccc(Cl)cc2)CC1` [Example 30, 1-[2-(4-chlorophenoxy)-2,2-dimethyl-ethyl]-N,N,β,β-tetramethyl-4-piperidineethanamine], for which the inhibition is 92%.
The value for `CN(C)CC(C)(C)C1CCN(C/C=C/C#CC(C)(C)C)CC1` [Example 16, (E)-1-(6,6-dimethyl-2-hepten-4-yn-1-yl)-N,N,β,β-tetramethyl-4-piperidineethanamine] was 100%.
With `CN(C)CC(C)(C)C1CCN(CCCCCCCCCCCn2ccnc2)CC1` [Example 21, 1-[(11-imidazolyl)undecyl]-N,N,β,β-tetramethyl-4-piperidineethanamine] the figure was 100%; with `CC(C)CCCC(=O)NCCCN1CCC(C(C)(C)CN(C)C)CC1` [Example 24, N-[[4-[2-(1-dimethylamino-2-methyl)propyl]-1-piperidinyl]-1-propyl]-5-methylhexanamide], 93%.
The value for `CCCCCCCCCCCCN1CCC(C(C)(C)CN2CCCCC2)CC1` [Example 15, 1-[[2-[4-(1-dodecylpiperidinyl)]-2-methyl]propyl]piperidine] was 40%; that for `CN(C)CC(C)(C)C1CCN(C(=O)CCCCCCCCCCn2ccnc2)CC1` [Example 20, 1-[(11-imidazolyl)undecanoyl]-N,N,β,β-tetramethyl-4-piperidineethanamine] was 100%.
With `CC(C)CCCNC(=O)CCCN1CCC(C(C)(C)CN(C)C)CC1` [Example 26, N-(4-methylpentyl)-4-[2-(1-dimethylamino-2-methyl)propyl]-1-piperidinebutanamide], the inhibition was 100%.
For `CN(C)CC(C)(C)C1CCN(C(=O)C=Cc2ccccc2)CC1` [Example 28, 1-(3-phenylpropenoyl)-N,N,β,β-tetramethyl-4-piperidineethanamine], the inhibition is 87%.
With `CN(C)CC(C)(C)C1CCN(C(=O)C(C)(C)Oc2ccc(Cl)cc2)CC1` [Example 29, 1-[2-(4-chlorophenoxy)-2,2-dimethyl-ethanoyl]-N,N,β,β-tetramethyl-4-piperidineethanamine] the figure was 95%; with `CCCCCCCCCCCC(=O)N1CCC(C(C)(C)C[N+](C)(C)C)CC1` [Example 27, 1-[(1-undecyl)carbonyl]-N,N,N,β,β-pentamethyl-4-piperidinethanaminium Iodide], 100%.
Turning to `CCOC(=O)CCCN1CCC(C(C)(C)CN(C)C)CC1` [Example 25], the inhibition worked out at 81%.
The value for `CC(C)=CCN1CCC(C(C)(C)CN(C)C)CC1` [Example 14, 1-(3,3-dimethylpropen-2-yl)-N,N,β,β-tetramethyl-4-piperidineethanamine] was 48%.
